Test results published in PMC6544337, “Development of chimeric and bifunctional antagonists for CLR/RAMP receptors” (PLoS ONE, 2019).

Tests used:
Format in all cases: cell-based
CLR/RAMP1 [1] = target: T1, CLR/RAMP1 (Homo sapiens, UniProt O60894+Q16602); experiment: CLR/RAMP1 cAMP assay, antagonist mode (CGRP challenge at EC80); settings: for Emax: maximum inhibition of CGRP-mediated signaling, in % of a positive control, read-out: CLR/RAMP1 Max Activity % of control (antagonistic)
CLR/RAMP2 [2] = target: T2, CLR/RAMP2 (Homo sapiens, UniProt O60895+Q16602); experiment: CLR/RAMP2 PathHunter β-arrestin assay, antagonist mode (ADM challenge at EC80); settings: for IC50: inhibition of ADM-mediated signaling, CHO-K1 cells, pre-incubation with antagonist, then agonist at EC80, β-arrestin read-out; for Emax: maximum inhibition of ADM-mediated signaling, in % of a positive control, read-out: CLR/RAMP2 Max Activity % of control (antagonistic)
T2 sequence (Q16602 23-461): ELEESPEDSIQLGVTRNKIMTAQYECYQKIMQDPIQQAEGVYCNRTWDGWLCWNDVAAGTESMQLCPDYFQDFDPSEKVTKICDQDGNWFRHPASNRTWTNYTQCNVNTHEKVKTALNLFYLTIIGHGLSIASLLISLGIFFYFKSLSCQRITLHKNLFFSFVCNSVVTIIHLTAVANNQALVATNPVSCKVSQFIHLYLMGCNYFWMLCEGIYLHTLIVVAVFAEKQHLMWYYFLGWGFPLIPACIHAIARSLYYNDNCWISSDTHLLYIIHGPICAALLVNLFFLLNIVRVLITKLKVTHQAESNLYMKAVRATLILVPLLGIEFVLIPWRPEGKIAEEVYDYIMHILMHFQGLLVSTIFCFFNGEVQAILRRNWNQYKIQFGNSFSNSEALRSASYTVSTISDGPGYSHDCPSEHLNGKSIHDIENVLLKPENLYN
T2 sequence (O60895 43-175): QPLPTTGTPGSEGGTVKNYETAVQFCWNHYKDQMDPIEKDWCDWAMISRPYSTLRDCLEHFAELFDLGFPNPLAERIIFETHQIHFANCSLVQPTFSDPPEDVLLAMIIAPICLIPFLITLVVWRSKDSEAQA
Experimental: (§1) The bioactivity of synthetic analogs was studied using cells that stably express CLR/RAMP1 (1321N1 cells) or CLR/RAMP2 (CHO-K1 cells) receptors using CLR/RAMP1 cAMP and CLR/RAMP2 arrestin assays from DiscoveRx (Fremont, Ca). In receptor-activation assays, the dose-dependent stimulatory response was studied in duplicate, at 10 different concentrations.
(§2) The CLR/RAMP2 signaling was assayed using the CLR/RAMP2 PathHunter β-Arrestin assay. In this assay, the GPCR was fused in frame with a small enzyme donor fragment ProLink (PK) and co-expressed in cells stably expressing a fusion protein of β-arrestin and an N-terminal deletion mutant of β-galactosidase (i.e., enzyme acceptor or EA). Activation of the CLR/RAMP2 stimulates binding of β-arrestin to the PK-tagged receptor and leads to an increase in enzyme activity that can be measured using chemiluminescent PathHunter Detection Reagents. PathHunter cell lines were seeded in white walled, 384-well microplates and incubated at 37C prior to testing. For agonist determination, intermediate dilution of sample stocks was performed to generate 5X sample in assay buffer, and 5 μl of 5X sample was added to cells and incubated at 37C for 90 minutes. Vehicle concentration was 1%. For antagonistic activity determination, cells were pre-incubated with antagonist followed by agonist challenge at the EC80 concentration.

CLR/RAMP1 [3] = target: T1, CLR/RAMP1; experiment: CLR/RAMP1 cAMP assay, agonist mode (DiscoveRx HitHunter cAMP XS+); settings: agonist mode; positive control CGRP; 1321N1 cells
Experimental: as §1
For the analysis of signaling in CLR/RAMP1-expressing cells, cAMP Hunter cell lines were expanded from freezer stocks, and cells were seeded in white walled, 384-well microplates and incubated at 37C for the appropriate time. The activity was determined using the DiscoveRx HitHunter cAMP XS+ assay. Media was aspirated from cells and replaced with 15 μl 2:1 HBSS/10mM Hepes:cAMP XS+ Ab reagent. Intermediate dilution of sample stocks was performed to generate 4X sample in assay buffer, and 5 μl of 4X sample was added to cells and incubated at 37C or room temperature for the appropriate time. Vehicle concentration was 1%.
Microplates were read with a PerkinElmer instrument for chemiluminescent signal detection.

CLR/RAMP2 [4] = target: T2, CLR/RAMP2; experiment: CLR/RAMP2 PathHunter β-arrestin assay, agonist mode; settings: agonist mode; positive control ADM; CHO-K1 cells
Experimental: as §1, §2

T1 sequence (Q16602 23-461): as the sequence (Q16602 23-461) above
T1 sequence (O60894 27-148): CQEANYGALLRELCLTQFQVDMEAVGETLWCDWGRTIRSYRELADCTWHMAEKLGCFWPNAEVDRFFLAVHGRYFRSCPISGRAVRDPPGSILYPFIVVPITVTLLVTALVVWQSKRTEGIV

| IC50 (CLR/RAMP1 [1]) | Emax (CLR/RAMP1 [1]) | IC50 (CLR/RAMP2 [2]) | Emax (CLR/RAMP2 [2]) | CLR/RAMP1 Max Activity % of control (CLR/RAMP1 [3]) | SMILES | CLR/RAMP2 Max Activity % of control (CLR/RAMP2 [4]) |
| --- | --- | --- | --- | --- | --- | --- |
| 6600 nM | 57% | 256 nM | 105% |  | CC[C@H](C)[C@H](NC(=O)[C@H](CCC(N)=O)NC(=O)[C@H](Cc1c[nH]cn1)NC(=O)[C@H](C)NC(=O)[C@H](CC(C)C)NC(=O)[C@H](CCCCN)NC(=O)[C@H](CCC(N)=O)NC(=O)[C@@H](NC(=O)[C@@H](N)[C@@H](C)O)C(C)C)C(=O)N[C@@H](Cc1ccc(O)cc1)C(=O)N[C@@H](CCC(N)=O)C(=O)N[C@@H](Cc1ccccc1)C(=O)N[C@H](C(=O)N[C@@H](CC(=O)O)C(=O)N[C@@H](CCCCN)C(=O)N[C@@H](CC(=O)O)C(=O)N[C@@H](CCCCN)C(=O)N[C@@H](CC(=O)O)C(=O)N[C@@H](CC(N)=O)C(=O)N[C@H](C(=O)N[C@@H](C)C(=O)N1CCC[C@H]1C(=O)N[C@@H](CCCNC(=N)N)C(=O)N[C@@H](CO)C(=O)N[C@@H](CCCCN)C(=O)N[C@H](C(=O)N[C@@H](CO)C(=O)N1CCC[C@H]1C(=O)N[C@@H](CCC(N)=O)C(=O)NCC(=O)N[C@@H](Cc1ccc(O)cc1)C(N)=O)[C@@H](C)CC)C(C)C)[C@@H](C)O [ADM22-52, reference compound] |  |
| 1880 nM | 99% | 117 nM | 100% |  | CC[C@H](C)[C@H](NC(=O)[C@H](CCCCN)NC(=O)[C@H](CO)NC(=O)[C@H](CCCNC(=N)N)NC(=O)[C@@H]1CCCN1C(=O)[C@H](C)NC(=O)[C@@H](NC(=O)[C@H](CC(N)=O)NC(=O)[C@H](CC(=O)O)NC(=O)[C@H](CCCCN)NC(=O)[C@H](CC(=O)O)NC(=O)[C@H](CCCCN)NC(=O)[C@H](CC(=O)O)NC(=O)[C@@H](NC(=O)[C@H](Cc1ccccc1)NC(=O)[C@H](CCCNC(=N)N)NC(=O)[C@H](CO)NC(=O)[C@H](CC(C)C)NC(=O)[C@H](CC(C)C)NC(=O)CNC(=O)[C@H](C)NC(=O)[C@H](CC(C)C)NC(=O)[C@H](CCCNC(=N)N)NC(=O)[C@H](Cc1c[nH]cn1)NC(=O)[C@@H](NC(=O)[C@@H](N)C(C)C)[C@@H](C)O)[C@@H](C)O)C(C)C)C(=O)N[C@@H](CO)C(=O)N1CCC[C@H]1C(=O)N[C@@H](CCC(N)=O)C(=O)NCC(=O)N[C@@H](Cc1ccc(O)cc1)C(N)=O [Antagonist 1–5] |  |
|  |  |  |  | 103 % of control | CSCC[C@H](NC(=O)CNC(=O)CNC(=O)[C@H](CO)NC(=O)[C@H](CCCNC(=N)N)NC(=O)[C@H](CO)NC(=O)[C@H](CC(C)C)NC(=O)[C@H](CC(C)C)NC(=O)CNC(=O)[C@H](C)NC(=O)[C@H](CC(C)C)NC(=O)[C@H](CCCNC(=N)N)NC(=O)[C@H](Cc1c[nH]cn1)NC(=O)[C@@H](NC(=O)[C@@H](NC(=O)[C@@H]1CSSC[C@H](NC(=O)[C@H](C)N)C(=O)N[C@@H](CC(N)=O)C(=O)N[C@@H]([C@@H](C)O)C(=O)N[C@@H](C)C(=O)N[C@@H]([C@@H](C)O)C(=O)N1)C(C)C)[C@@H](C)O)C(=O)N[C@H](C(=O)N[C@@H](CCCCN)C(=O)N[C@@H](CO)C(=O)N[C@@H](CC(N)=O)C(=O)N[C@@H](Cc1ccccc1)C(=O)N[C@H](C(=O)N1CCC[C@H]1C(=O)N[C@H](C(=O)N[C@@H](CC(N)=O)C(=O)N[C@H](C(=O)NCC(=O)N[C@@H](CO)C(=O)N[C@@H](CCCCN)C(=O)N[C@@H](C)C(=O)N[C@@H](Cc1ccccc1)C(N)=O)C(C)C)[C@@H](C)O)C(C)C)C(C)C [CGRP, calcitonin gene-related peptide] |  |
| 1120 nM | 106% | 289 nM | 101% |  | CC[C@H](C)[C@H](NC(=O)[C@H](CCC(N)=O)NC(=O)[C@H](Cc1c[nH]cn1)NC(=O)[C@H](C)NC(=O)[C@H](CC(C)C)NC(=O)[C@H](CCCCN)NC(=O)[C@H](CCC(N)=O)NC(=O)[C@@H](NC(=O)[C@@H](N)[C@@H](C)O)C(C)C)C(=O)N[C@@H](Cc1ccc(O)cc1)C(=O)N[C@@H](CCC(N)=O)C(=O)N[C@@H](Cc1ccccc1)C(=O)N[C@H](C(=O)N[C@@H](CC(=O)O)C(=O)N[C@@H](CCCCN)C(=O)N[C@@H](CC(=O)O)C(=O)N[C@@H](CCCCN)C(=O)N[C@@H](CC(=O)O)C(=O)N[C@@H](CC(N)=O)C(=O)N[C@@H](CO)C(=O)N[C@@H](C)C(=O)N1CCC[C@H]1C(=O)N[C@H](C(=O)N[C@@H](CC(=O)O)C(=O)N1CCC[C@H]1C(=O)N[C@@H](CO)C(=O)N[C@@H](CO)C(=O)N1CCC[C@H]1C(=O)N[C@@H](Cc1c[nH]cn1)C(=O)N[C@@H](CO)C(=O)N[C@@H](Cc1ccc(O)cc1)C(N)=O)C(C)C)[C@@H](C)O [Antagonist 1–4] |  |

Continued, compound first:

| SMILES | IC50 (CLR/RAMP1 [1]) | Emax (CLR/RAMP1 [1]) | IC50 (CLR/RAMP2 [2]) | Emax (CLR/RAMP2 [2]) | CLR/RAMP1 Max Activity % of control (CLR/RAMP1 [3]) | CLR/RAMP2 Max Activity % of control (CLR/RAMP2 [4]) |
| --- | --- | --- | --- | --- | --- | --- |
| NCCCC[C@H](NC(=O)[C@@H](Cc1cc(Br)c(O)c(Br)c1)NC(=O)N1CCC(N2Cc3ccccc3NC2=O)CC1)C(=O)N1CCN(c2ccncc2)CC1 [BIBN4096, reference compound] |  |  |  | 0% |  |  |
| CCCCCCCCCCCCCCCC(=O)NCC(=O)N[C@H]1CSSC[C@@H](C(=O)N[C@H](C(=O)N[C@H](C(=O)N[C@@H](CCC(N)=O)C(=O)N[C@@H](CCCCN)C(=O)N[C@@H](CC(C)C)C(=O)N[C@@H](C)C(=O)N[C@@H](Cc2c[nH]cn2)C(=O)N[C@@H](CCC(N)=O)C(=O)N[C@H](C(=O)N[C@@H](Cc2ccc(O)cc2)C(=O)N[C@@H](CCC(N)=O)C(=O)N[C@@H](Cc2ccccc2)C(=O)N[C@H](C(=O)N[C@@H](CC(=O)O)C(=O)N[C@@H](CCCCN)C(=O)N[C@@H](CC(=O)O)C(=O)N[C@@H](CCCCN)C(=O)N[C@@H](CC(=O)O)C(=O)N[C@@H](CC(N)=O)C(=O)N[C@H](C(=O)N[C@@H](C)C(=O)N2CCC[C@H]2C(=O)N[C@@H](CCCNC(=N)N)C(=O)N[C@@H](CO)C(=O)N[C@@H](CCCCN)C(=O)N[C@H](C(=O)N[C@@H](CO)C(=O)N2CCC[C@H]2C(=O)N[C@@H](CCC(N)=O)C(=O)NCC(=O)N[C@@H](Cc2ccc(O)cc2)C(N)=O)[C@@H](C)CC)C(C)C)[C@@H](C)O)[C@@H](C)CC)C(C)C)[C@@H](C)O)NC(=O)[C@H]([C@@H](C)O)NC(=O)CNC(=O)[C@H](Cc2ccccc2)NC(=O)[C@H](CCCNC(=N)N)NC1=O [Agonist 3] |  |  |  |  |  | 78 % of control |
| CC[C@H](C)[C@H](NC(=O)[C@H](CCCCN)NC(=O)[C@H](CO)NC(=O)[C@H](CCCNC(=N)N)NC(=O)[C@@H]1CCCN1C(=O)[C@H](C)NC(=O)[C@@H](NC(=O)[C@H](CC(N)=O)NC(=O)[C@H](CC(=O)O)NC(=O)[C@H](CCCCN)NC(=O)[C@H](CC(=O)O)NC(=O)[C@@H]1CCCN1C(=O)CNC(=O)[C@H](CCSC)NC(=O)[C@H](CC(C)C)NC(=O)[C@H](CCC(N)=O)NC(=O)[C@H](Cc1c[nH]c2ccccc12)NC(=O)[C@H](CC(C)C)NC(=O)[C@H](CCCNC(=N)N)NC(=O)[C@H](Cc1c[nH]cn1)NC(=O)[C@H](C)NC(=O)[C@H](CC(C)C)NC(=O)[C@H](CCCCN)NC(=O)[C@H](CCC(N)=O)NC(=O)[C@@H](NC(=O)[C@@H](N)[C@@H](C)O)C(C)C)C(C)C)C(=O)N[C@@H](CO)C(=O)N1CCC[C@H]1C(=O)N[C@@H](CCC(N)=O)C(=O)NCC(=O)N[C@@H](Cc1ccc(O)cc1)C(N)=O [Antagonist 1–6] | 152 nM | 101% | 7.3 nM | 101% |  |  |
| CCCCCCCCCCCCCCCC(=O)N[C@H](C(=O)N[C@H](C(=O)N[C@@H](CCC(N)=O)C(=O)N[C@@H](CCCCN)C(=O)N[C@@H](CC(C)C)C(=O)N[C@@H](C)C(=O)N[C@@H](Cc1c[nH]cn1)C(=O)N[C@@H](CCC(N)=O)C(=O)N[C@H](C(=O)N[C@@H](Cc1ccc(O)cc1)C(=O)N[C@@H](CCC(N)=O)C(=O)N[C@@H](Cc1ccccc1)C(=O)N[C@H](C(=O)N[C@@H](CC(=O)O)C(=O)N[C@@H](CCCCN)C(=O)N[C@@H](CC(=O)O)C(=O)N[C@@H](CCCCN)C(=O)N[C@@H](CC(=O)O)C(=O)N[C@@H](CC(N)=O)C(=O)N[C@@H](CO)C(=O)N[C@@H](C)C(=O)N1CCC[C@H]1C(=O)N[C@H](C(=O)N[C@@H](CC(=O)O)C(=O)N1CCC[C@H]1C(=O)N[C@@H](CO)C(=O)N[C@@H](CO)C(=O)N1CCC[C@H]1C(=O)N[C@@H](Cc1c[nH]cn1)C(=O)N[C@@H](CO)C(=O)N[C@@H](Cc1ccc(O)cc1)C(N)=O)C(C)C)[C@@H](C)O)[C@@H](C)CC)C(C)C)[C@@H](C)O [Antagonist 1–1] |  |  |  | 100% |  |  |
